Columns and labels:
[1] = Photostability test (UV-A 356 nm, 1H NMR); assay type: physicochemical; parameters: key: 4 = No qualitative change in ^1H NMR spectrum; 3 = Minute noise but no qualitative change in ^1H NMR spectrum; 2 = Clear noise and some qualitative change in ^1H NMR spectrum; 1 = Qualitative confirmation is difficult in ^1H NMR spectrum; conditions: room temperature
Description: In order to examine photostability of the compound of formula (1) compared with retinol, 10 mg of sample was irradiated by UV-A light (wavelength 356 nm) using a Spectroline (Model CM-10; Fluorescence analysis cabinet; Spectronics Corporation, Westbury, N.Y., USA) at certain intervals of time at room temperature.

[2] = system: AP-1 (comprising c-Jun protein); assay: Inhibition of activity of AP-1 protein (Coll-CAT collagenase promoter reporter in HaCaT cells); assay type: cell-based; conditions: for Relative inhibition against the expression of collagenase / effect on / inhibitory activity against c-Jun (AP-1), in words: HaCaT, Coll-CAT; for effect on / inhibitory activity against c-Jun (AP-1), in words: c-Jun / RAR α cotransfection
Description: AP-1 (comprising c-Jun protein) is a transcription factor inducing the expression of collagenase that is a major cause of skin wrinkles. […] Therefore, studies thereabout were carried out in a similar manner to Experiment 6 as follows.
Experimental procedure: CAT reporter (Coll-CAT) having the collagenase promoter wherein AP-1 response element (TRE) is contained, was transfected into HaCaT cell line, a skin cancer cell line, using a liposome. Then, the degree of inhibition against the activity of AP-1 by retinol derivatives was measured through CAT ELISA in a similar manner to Experiment 6. Further, the effect of retinol derivatives on the transcriptional activity of c-Jun (a protein that induces transfer of cancer, skin aging and inflammation, and consists of homologous isomers or heterologous isomers), a constitutional element of AP-1, was examined by cotransfecting c-Jun or RAR α expression vector.

[3] = target: T1, RAR α (Homo sapiens, UniProt P10276); assay: Activity for RAR α (CAT reporter in HaCaT cells); assay type: cell-based; conditions: 1 μM, CAT ELISA
T1 construct: expressed in transfected cells; host or cells: HaCaT
T1 sequence (P10276 1-462): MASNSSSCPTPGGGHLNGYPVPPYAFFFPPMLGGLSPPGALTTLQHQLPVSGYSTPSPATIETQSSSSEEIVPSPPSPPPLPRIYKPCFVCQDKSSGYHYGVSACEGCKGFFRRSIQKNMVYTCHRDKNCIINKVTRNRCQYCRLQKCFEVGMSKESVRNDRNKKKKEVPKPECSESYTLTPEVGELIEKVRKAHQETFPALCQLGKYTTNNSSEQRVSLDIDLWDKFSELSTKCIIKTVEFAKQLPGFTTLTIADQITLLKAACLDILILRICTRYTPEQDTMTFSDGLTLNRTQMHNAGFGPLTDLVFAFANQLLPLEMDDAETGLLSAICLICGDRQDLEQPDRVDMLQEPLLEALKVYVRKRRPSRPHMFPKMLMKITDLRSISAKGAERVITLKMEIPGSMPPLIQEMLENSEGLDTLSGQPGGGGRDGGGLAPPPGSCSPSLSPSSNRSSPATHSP
Description: (§1) The effect of the retinol derivatives on the activity of RAR and RXR was examined as follows.
(§2) Experimental procedure: Recombinant gene of DR5-tk-CAT or DR1-tk-CAT comprising DR1 or DR5 as a response element of RAR/RXR, […] promoter, and CAT (chloramphenicol acetyl transferase) was suitably combined with a plasmid DNA that expresses RAR α, β, γ and cotransfected to HaCaT cell line, a skin cancer cell line, with Lipofectamin (GibcoBRL). Then, the cells were incubated in DMEM/10% FBS medium for 1 day, retinol derivative was added in a concentration of 1 μM, and the cells were incubated again for 1 day under the condition of 5% CO2 and 37° C. The cells were washed with phosphate-buffered salione (PBS). Proteins were extracted from each cell, the activity of β-galactosidase was assayed, and the amount of protein was measured to determine the transfection efficiency. Further, the degree of transcription for RAR or RXR was analyzed by CAT ELISA (Roche Molecular Biochemicals, Mannheim, Germany).

[4] = target: T2, RAR β (Homo sapiens, UniProt P10826); assay: Activity for RAR β (CAT reporter in HaCaT cells); assay type: cell-based; conditions: 1 μM, CAT ELISA
T2 construct: expressed in transfected cells; host or cells: HaCaT
T2 sequence (P10826 1-455): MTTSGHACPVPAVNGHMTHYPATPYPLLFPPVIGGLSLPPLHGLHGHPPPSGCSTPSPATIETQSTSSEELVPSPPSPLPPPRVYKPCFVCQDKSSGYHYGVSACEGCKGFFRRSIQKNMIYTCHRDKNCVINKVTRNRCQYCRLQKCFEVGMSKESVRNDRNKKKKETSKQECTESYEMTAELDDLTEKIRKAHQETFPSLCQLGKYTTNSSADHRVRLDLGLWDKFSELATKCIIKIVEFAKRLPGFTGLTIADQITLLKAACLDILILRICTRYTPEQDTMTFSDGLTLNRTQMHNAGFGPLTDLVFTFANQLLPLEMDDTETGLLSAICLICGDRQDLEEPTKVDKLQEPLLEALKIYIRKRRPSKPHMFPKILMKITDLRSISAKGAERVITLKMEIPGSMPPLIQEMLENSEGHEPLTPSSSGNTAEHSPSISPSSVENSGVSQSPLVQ
Description: as §1, §2

[5] = target: T3, RAR γ (Homo sapiens, UniProt P13631); assay: Activity for RAR γ (CAT reporter in HaCaT cells); assay type: cell-based; conditions: 1 μM, CAT ELISA
T3 construct: expressed in transfected cells; host or cells: HaCaT
T3 sequence (P13631 1-454): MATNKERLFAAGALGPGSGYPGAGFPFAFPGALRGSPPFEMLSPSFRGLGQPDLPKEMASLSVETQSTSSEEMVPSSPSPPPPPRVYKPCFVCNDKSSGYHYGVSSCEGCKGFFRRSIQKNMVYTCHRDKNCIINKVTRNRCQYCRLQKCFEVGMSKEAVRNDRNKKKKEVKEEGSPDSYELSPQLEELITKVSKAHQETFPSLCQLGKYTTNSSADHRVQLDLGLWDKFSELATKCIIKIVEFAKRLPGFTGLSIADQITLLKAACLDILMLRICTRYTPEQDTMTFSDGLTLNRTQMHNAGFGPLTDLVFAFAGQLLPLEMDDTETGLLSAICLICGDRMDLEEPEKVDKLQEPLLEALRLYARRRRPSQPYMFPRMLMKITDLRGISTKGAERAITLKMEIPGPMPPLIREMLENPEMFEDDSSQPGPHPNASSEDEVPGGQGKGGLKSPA
Description: as §1, §2

[6] = system: RXR α, β, γ; assay: Activity for RXR (CAT reporter in HaCaT cells); assay type: cell-based; conditions: 1 μM, CAT ELISA, Control = 1.0
Description: as §1, §2

[7] = system: Normal human fibroblast (Newborn, passage: 6); assay: Collagen synthesis test (Sircol collagen assay); assay type: cell-based; conditions: 0.000001%, 0.00001%(w/v); human fibroblast
Description: The effect for collagen synthesis of the compound of formula (1) was examined by using retinol, retinoic acid, and derivatives thereof as comparison compounds to confirm its utility as inhibitors for skin aging as follows. The results are represented in FIG. 2.
Cell: Normal human fibroblast (Newborn, passage: 6)
Medium: DMEM containing 10% FBS→DMEM free of FBS was used when cells were treated with samples.
Concentration: A range of concentration where the samples exert no toxicity to the cells was selected through a cell toxicity test ? 0.000001%, 0.00001%(w/v)
Procedure: 1×10^5 cells/well were inoculated into a 6-well plate. Cells were cultured to show about 79–80% confluent. Cells were treated with test samples and incubated for 2 days (FBS was not added to the medium when cells were treated with samples). After 2 days, cell medium and cells were separated from each other and respectively stored in a refrigerator. The cell extract was subjected to the protein analysis (BCA Protein Assay Kit, PIERCE 23225) and the medium was subjected to collagen analysis.
After the medium was removed, a small amount of PBS was added. Cells were scraped with a scraper. 1N NaOH (100 μl) and distilled water (400 μl) were added and the resulting mixture was allowed to stand overnight. Then, the protein analysis was carried out.
Collagen analysis: Analysis kit (Sircol Collagen assay kit—a dye that specifically combines with soluble collagen is used)
1.0 ml of Sircol Dye Reagent was introduced into each tube and mixed for 30 minutes. The mixture was centrifuged for 10 minutes at 5,000 g or more and the supernatant was removed. 1.0 ml Sircol Alkali Reagent was added, slowly mixed, and absorbance at 540 nm was measured. The amount of protein was converted into the value of collagen analysis (see: Mechanism of Aging and Development 73, 179–187, 1994).
After the above experiment, the increasing ratio for collagen synthesis of the test group over the control group treated only by DMEM was depicted in FIG. 2.

[8] = system: skin of normal adults; assay: Test for skin irritation property (closed patch test); assay type: in vivo, human; conditions: closed patch test 24 hours, 20 adults
Description: In order to examine the skin irritation of the compound of formula (1), a patch test for the skin of normal adults was carried out. As the carrier, capryl caprylic triglyceride or the conventional O/W formulation was used, and twenty (20) adults per a group were tested for 24 hours.
The conventional O/W formulation used in the present experiment was prepared according to the following procedure.
Each of the aqueous part of Nos. 1–6 and the oily part of Nos. 7–13 as shown in the following Table 1 was heated to 75–80° C. to be thoroughly dissolved. The oily part was slowly added to the aqueous part and emulsification was performed for 5 minutes at 75–80° C. in a homomixer of 3000rpm. During the emulsification, the mixture was neutralized by the neutralizing agent of No. 14. After the first emulsification, the mixture was cooled, the retinal retaliate and fragrance of Nos. 15–16 were added at 50–55° C., and then the second emulsification was carried out for 3 minutes in a homomixer of 3000rpm. The mixture was cooled again to 27–30° C. to prepare the composition of O/W formulation.
From the experimental results, the irritation indexes were calculated according to the following Equation 1 and the results are represented in the following Table 2. Irritation index={Σ(Test Value×Number of Examinees Corresponding to the Test Value)/(Total Examinees×The Maximum Test Value)×100 Equation 1
Test Value +++: 5, ++: 4, +: 3, +−: 2, −:1
The degree of irritation was determined according to the following standards:
1.9 or less: Minute irritation, 2.0–2.9: Weak irritation, 3.0–3.9: Moderate irritation, 4.0 or more: Strong irritation

[9] = Condition of expression: c-Jun + RAR α, untreated = 8.6
[10] = Condition of expression: c-Jun, untreated = 8.6
[11] = Condition of expression: — (no c-Jun or RAR α vector), untreated = 1.0
[12] = Control = 1.0, listed as retinal acetyl salicylate
[13] = Control = 1.0, listed as retinal salicylate

SMILES | Relative inhibition against the expression of collagenase [2, 9] | Relative inhibition against the expression of collagenase [2, 10] | Relative inhibition against the expression of collagenase [2, 11] | Relative activity against RAR α ([3]; Control = 1.0) | Relative activity against RAR β ([4]; Control = 1.0) | Relative activity against RAR γ ([5]; Control = 1.0) | Relative activity against RXR α, β, γ [6] | effect on / inhibitory activity against c-Jun (AP-1), in words [2] | also measured
CC1=C(/C=C/C(C)=C/C=C/C(C)=C/C(=O)OC(=O)/C=C(C)/C=C/C=C(C)/C=C/C2=C(C)CCCC2(C)C)C(C)(C)CCC1 |  |  |  |  |  |  |  |  | Photostability level ([1]; After 0 hour, 10 mg sample): 4; Photostability level ([1]; After 2 hours): 3; Photostability level ([1]; After 12 hours): 2; Photostability level ([1]; After 24 hours): 2; Photostability level ([1]; After 48 hours): 2
CC1=C(/C=C/C(C)=C/C=C/C(C)=C/C(=O)O)C(C)(C)CCC1 [Retinoic acid] | 3.1 | 5.4 | 0.6 | 37.0 | 4.0 | 3.0 | 9.5 |  | inhibition of the expression of collagenase ([2]; cells treated together with RAR α (c-Jun expressed)): about 64%
CCCCCCCCCCCCCCCC(=O)OC/C=C(C)/C=C/C=C(C)/C=C/C1=C(C)CCCC1(C)C [Retinyl Palmitate] |  |  |  |  |  |  |  |  | effect for collagen synthesis (FIG. 2), comparison in words [7]: much lower effect for collagen synthesis than retinol; Degree of Irritation ([8]; 0.138% in C.C.T): Moderate irritation (3.0–3.9: Moderate irritation); Irritation Index ([8]; 0.138% in C.C.T): 3.8; Degree of Irritation ([8]; 0.55% in C.C.T): Strong irritation (4.0 or more: Strong irritation); Irritation Index ([8]; 0.55% in C.C.T): 4.5
CC(=O)Oc1ccccc1C(=O)OC/C=C(C)/C=C/C=C(C)/C=C/C1=C(C)CCCC1(C)C [Retinyl acetyl salicylate] | 8.7 | 8.5 | 1.0 | 2.5 | 1.0 | 1.0 | 1.1 | no effect | Relative activity against RAR α [3, 12]: low activity; Relative activity against RAR β [4, 12]: no activity; Relative activity against RAR γ [5, 12]: no activity
CC1=C(/C=C/C(C)=C/C=C/C(C)=C/COC(=O)c2ccccc2O)C(C)(C)CCC1 [Retinyl salicylate] | 8.8 | 8.7 | 1.0 | 3.2 | 1.1 | 1.0 | 1.0 | no effect | Relative activity against RAR α [3, 13]: low activity; Relative activity against RAR β [4, 13]: no activity; Relative activity against RAR γ [5, 13]: no activity

Source: patent publication US7173062B2, “Method for the improvement of skin wrinkles using retinyl retinoate” (Enprani Co., Ltd., priority 2001, dated 2007)
